Results published in PubChem BioAssay AID1963835 (Molecular Pharmacology Branch, DTP, NCI, 2024).
“And” between values parts separate entries of the source, which are not always exact repeats. Identical values can stand only once.

Tested on: 699152-130-R-J1-PDC complex spheroid viability
Assay: Anticancer human tumor 699152-130-R-J1-PDC patient-derived pancreatic carcinoma cell line growth inhibition [POLQ]
Conditions: for viability, T/C: stronger effect = lower value
Protocol: Multicellular complex tumor spheroid response to Polymerase (POL) inhibitors (novobiocin, ART-558, RP6685) in combination with a variety of drugs and investigational agents in selected tumor cell lines
The POL inhibitors (novobiocin, ART-558, and RP6685) were evaluated both individually and in combination with standard of care and investigational anticancer small molecules within a complex spheroid model of solid tumors. . Complex spheroids include a stromal component modeled by human endothelial cells (HUVEC) and fibroblasts modeled by human mesenchymal stem cells (MSCs). The concentration ranges selected for each drug and investigational agent were based upon clinically achievable concentrations if the clinical Cmax of the agent was known.
Compounds. The drugs and investigational agents: novobiocin (NSC847541), ART-558 (NSC835418), RP-6685 (NSC848927), peposertib (NSC802822), ceralasertib (NSC780249), elimusertib (NSC800525), camonsertib (NSC841442), AZD-1390 (NSC803789), olaparib (NSC753686), talazoparib (NSC767125), rucaparib (NSC756644), sotorasib (NSC818433), MRTX-1133 (NSC836407), SN-38 (NSC673596), topotecan (NSC609699), epotoside (NSC141540), doxorubicin (NSC123127), gemcitabine (NSC613327), 5-fluorouracil (NSC19893), paclitaxel (NSC125973), vemurafenib (NSC761431), MSA-2 (NSC828583), SN-011 (NSC837082), adavosertib (NSC754352), prexasertib (NSC758257), carboplatin (NSC241240) and oxaliplatin (NSC266046), were obtained from the National Cancer Institute (NCI) Developmental Therapeutics Program Chemical Repository (21). The FDA-approved anticancer drug set is available from the Developmental Therapeutics Program at https://dtp.cancer.gov/organization/dscb/obtaining/. […] The stock solutions were prepared in dimethyl sulfoxide (DMSO, Sigma-Aldrich, St. Louis, MO, cat. D2650), except for the platinum compounds which were prepared in saline (Quality Biological, Gaithersburg, MD, cat. 114-055-101), at 800-fold the tested concentration and stored at -70 degrees C prior to their use. All drugs and investigational agents were tested over a range starting from a high concentration at or near the clinical Cmax and decreasing in half-log increments. If the clinical Cmax for an agent had not been determined, the highest concentration tested was 10 microM, except for SN-38, which was tested at a high concentration of 1 microM.
Cell Culture. All cells were maintained in an incubator at 37 degrees C and 5% CO2 with 95% humidity. The PDC lines were cultured according to standard operating procedures established by the NCI PDMR (https://pdmr.cancer.gov). Table 3 of the manuscript, lists the cell lines along with the number of the three cell types plated to form the mct-spheroids and media for tumor cell growth. After thawing, all PDC lines, except 997537-175-T-J1-PDC and 415267-285-R-J2-PDC, were cultured in Matrigel-coated flasks prepared with a working solution of 1X Ham's F-12 nutrient mix, without supplementation (Thermo Fisher Scientific, cat. 11765054), 100 U/mL penicillin-streptomycin (Thermo Fisher Scientific, cat. 15140122), and 2.5% Matrigel (Corning Inc., Corning, NY, cat. 354248) for the first three passages. The two PDC lines 997537-175-T-J1-PDC and 415267-285-R-J2-PDC were cultured on uncoated flasks. The 857933-349-R-J2-PDC line was cultured in 6C/Colon 1B media containing advanced DMEM/F-12 (Thermo Fisher Scientific, cat. 12634028), 10 mM HEPES (Thermo Fisher Scientific, cat. 15630080), 1X GlutaMAX supplement (Thermo Fisher Scientific, cat. 35050061), 0.1 mg/mL primocin (InvivoGen, San Diego, CA, cat. ant-pm-2), 10% defined fetal bovine serum, heat inactivated (HyClone Laboratories Inc., Logan, UT, cat. SH30070.03HI), 50% L-WRN conditioned media (ATCC, cat. CRL-3276), 1.25 mM N-Acetyl-L-cysteine (Sigma-Aldrich, cat. A9165), 10 mM nicotinamide (Sigma-Aldrich, cat. N0636), 1X B-27 supplement (Thermo Fisher Scientific, cat. 17504044), 1X N-2 supplement (Thermo Fisher Scientific, cat. […]

[1] = curve of first compound, second compound 0.0316 µM
[2] = curve of first compound, second compound 0.1 µM
[3] = curve of first compound, second compound 0.316 µM
[4] = curve of first compound, second compound 1 µM
[5] = curve of first compound, second compound 3.16 µM
[6] = curve of first compound, second compound 10 µM
[7] = second compound 0.0316 µM, first compound 0.0316 µM
[8] = second compound 0.0316 µM, first compound 0.1 µM
[9] = second compound 0.0316 µM, first compound 0.316 µM
[10] = second compound 0.0316 µM, first compound 1 µM
[11] = second compound 0.0316 µM, first compound 3.16 µM
[12] = second compound 0.0316 µM, first compound 10 µM
[13] = second compound 0.1 µM, first compound 0.0316 µM
[14] = second compound 0.1 µM, first compound 0.1 µM
[15] = second compound 0.1 µM, first compound 0.316 µM
[16] = second compound 0.1 µM, first compound 1 µM
[17] = second compound 0.1 µM, first compound 3.16 µM
[18] = second compound 0.1 µM, first compound 10 µM
[19] = second compound 0.316 µM, first compound 0.0316 µM
[20] = second compound 0.316 µM, first compound 0.1 µM
[21] = second compound 0.316 µM, first compound 0.316 µM
[22] = second compound 0.316 µM, first compound 1 µM
[23] = second compound 0.316 µM, first compound 3.16 µM
[24] = second compound 0.316 µM, first compound 10 µM
[25] = second compound 1 µM, first compound 0.0316 µM
[26] = second compound 1 µM, first compound 0.1 µM
[27] = second compound 1 µM, first compound 0.316 µM
[28] = second compound 1 µM, first compound 1 µM
[29] = second compound 1 µM, first compound 3.16 µM
[30] = second compound 1 µM, first compound 10 µM
[31] = second compound 3.16 µM, first compound 0.0316 µM
[32] = second compound 3.16 µM, first compound 0.1 µM
[33] = second compound 3.16 µM, first compound 0.316 µM
[34] = second compound 3.16 µM, first compound 1 µM
[35] = second compound 3.16 µM, first compound 3.16 µM
[36] = second compound 3.16 µM, first compound 10 µM
[37] = second compound 10 µM, first compound 0.0316 µM
[38] = second compound 10 µM, first compound 0.1 µM
[39] = second compound 10 µM, first compound 0.316 µM
[40] = second compound 10 µM, first compound 1 µM
[41] = second compound 10 µM, first compound 3.16 µM
[42] = second compound 10 µM, first compound 10 µM
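Also: spheroids exposed to agents for 7 days before viability reading.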
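For viability, T/C in this document: percent of DMSO vehicle control viability so 100% = vehicle and 0% = no viable signal.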

SMILES: CCc1cc2c(N3CCc4c(cc(Cn5ccnc5)cc4-c4cn(C)nc4C(F)(F)F)C3=O)ccnc2c(OC)n1 + Cc1cccc(N(C)C(=O)C2C(O)CCN2c2nc(C)cc(C(F)(F)F)c2C#N)c1
- IC50 [1]: > 10 µM
- IC50 [2]: > 10 µM
- IC50 [3]: > 10 µM
- IC50 [4]: > 10 µM
- IC50 [5]: > 10 µM
- IC50 [6]: > 10 µM
- viability, T/C [7]: 80%
- viability, T/C [8]: 90.4%
- viability, T/C [9]: 105%
- viability, T/C [10]: 114%
- viability, T/C [11]: 103%
- viability, T/C [12]: 95%
- viability, T/C [13]: 75.8%
- viability, T/C [14]: 89.3%
- viability, T/C [15]: 88.1%
- viability, T/C [16]: 94.2%
- viability, T/C [17]: 97.3%
- viability, T/C [18]: 94.9%
- viability, T/C [19]: 86.7%
- viability, T/C [20]: 101%
- viability, T/C [21]: 91.5%
- viability, T/C [22]: 102%
- viability, T/C [23]: 103%
- viability, T/C [24]: 93.6%
- viability, T/C [25]: 101%
- viability, T/C [26]: 93%
- viability, T/C [27]: 98.7%
- viability, T/C [28]: 86.8%
- viability, T/C [29]: 105%
- viability, T/C [30]: 91.7%
- viability, T/C [31]: 99.2%
- viability, T/C [32]: 94.5%
- viability, T/C [33]: 98.4%
- viability, T/C [34]: 95.1%
- viability, T/C [35]: 90.9%
- viability, T/C [36]: 99.8%
- viability, T/C [37]: 85.6%
- viability, T/C [38]: 93.1%
- viability, T/C [39]: 92.5%
- viability, T/C [40]: 94.7%
- viability, T/C [41]: 95.1%
- viability, T/C [42]: 95.5%

SMILES: CCCS(=O)(=O)Nc1ccc(F)c(C(=O)c2c[nH]c3ncc(-c4ccc(Cl)cc4)cc23)c1F
- viability, T/C (compound 0.0316 µM): 109% and 96.3% and 112%
- viability, T/C (compound 0.1 µM): 112% and 102% and 110%
- viability, T/C (compound 0.316 µM): 129% and 120% and 116%
- viability, T/C (compound 1 µM): 158% and 156% and 128%
- viability, T/C (compound 3.16 µM): 187% and 182% and 192%
- viability, T/C (compound 10 µM): 34.7% and 43.6% and 56.4%
- IC50 (curve of compound): 8.44 µM and 9.19 µM and > 10 µM

SMILES: O=C(Nc1ccc(O)c(NS(=O)(=O)c2ccc(F)cc2)c1)c1ccc(-c2ccccc2)cc1 + COC1C(OC(N)=O)C(O)C(Oc2ccc3c(O)c(NC(=O)c4ccc(O)c(CC=C(C)C)c4)c(=O)oc3c2C)OC1(C)C
- IC50 [1]: > 10 µM
- IC50 [2]: > 10 µM
- IC50 [3]: > 10 µM
- IC50 [4]: > 10 µM
- IC50 [5]: > 10 µM
- IC50 [6]: > 10 µM
- viability, T/C [7]: 105%
- viability, T/C [8]: 123%
- viability, T/C [9]: 117%
- viability, T/C [10]: 104%
- viability, T/C [11]: 122%
- viability, T/C [12]: 80.8%
- viability, T/C [13]: 103%
- viability, T/C [14]: 104%
- viability, T/C [15]: 117%
- viability, T/C [16]: 101%
- viability, T/C [17]: 101%
- viability, T/C [18]: 94.6%
- viability, T/C [19]: 103%
- viability, T/C [20]: 101%
- viability, T/C [21]: 95.7%
- viability, T/C [22]: 101%
- viability, T/C [23]: 117%
- viability, T/C [24]: 77.3%
- viability, T/C [25]: 115%
- viability, T/C [26]: 99.6%
- viability, T/C [27]: 97.2%
- viability, T/C [28]: 94.5%
- viability, T/C [29]: 103%
- viability, T/C [30]: 82.3%
- viability, T/C [31]: 108%
- viability, T/C [32]: 111%
- viability, T/C [33]: 113%
- viability, T/C [34]: 119%
- viability, T/C [35]: 105%
- viability, T/C [36]: 89.5%
- viability, T/C [37]: 95.3%
- viability, T/C [38]: 107%
- viability, T/C [39]: 102%
- viability, T/C [40]: 95.5%
- viability, T/C [41]: 103%
- viability, T/C [42]: 86.3%
